{"source": "paper PMC4176448", "about": "(The Journal of Infectious Diseases, 2014)", "tested_on": "influenza B virus", "parameters": "species or system human (patient)", "details": "human, in vivo, po", "data": [{"smiles": "CCOC(=O)C1=C[C@@H](OC(CC)CC)[C@H](NC(C)=O)[C@@H](N)C1", "note": "[Oseltamivir, oseltamivir]", "values": [{"measurement": "NPAs tested for influenza B virus after oseltamivir treatment", "value": "still positive"}]}]}
